The METLIN SMRT retention time set (Domingo-Almenara et al. 2019)

Test: gradient 5% acetonitrile 3 min, to 50% in 2 min, to 85% in 15 min, held 3 min, 100 µL/min
Conditions: column: Zorbax Extend-C18 2.1 x 50 mm; eluents: water / acetonitrile, 0.1% formic acid
Procedure, shortened: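 Retention times of pure standards were taken from adduct peaks that were selected by computer and manually inspected. Over 3 months, mixtures of ~100 molecules were run by HPLC–quadrupole time-of-flight mass spectrometry in positive and negative ionization mode. The Zorbax Extend-C18 column (2.1 × 50 mm, 1.8 μm) ran at 100 μL/min in water and acetonitrile, each containing 0.1% formic acid, with 40 μL dead volume and 900 μL dwell volume.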

| SMILES | RP-LC retention time |
| --- | --- |
| O=C(NCCc1c[nH]c2ccccc12)c1cc(=O)c(OCc2ccc(F)cc2)co1 | 765 s |
| O=C(NC1CCCC1)C1CCCN(S(=O)(=O)c2c[nH]c(C(=O)N3CCCC3)c2)C1 (configuration not stated) | 698 s |
| Cc1ccn2cc(-c3ccc(NC(=O)c4ccc(Cl)cc4)cc3)nc2n1 | 676 s |
| Cc1nc2cc(-c3noc(-c4ccc5c(c4)OCO5)n3)ccc2n(C)c1=O | 920 s |
| Cc1c(CNCc2ccccn2)c(C(=O)O)c(C)n1Cc1ccc(F)cc1 | 670 s |
| O=C(Nc1ccccc1F)C1CCc2nc(N3CCOCC3)ncc2C1 (configuration not stated) | 778 s |
| Cn1nccc1-c1cccc(-c2noc(Cc3ccccc3F)n2)c1 | 1050 s |
| O=C(NCCC(c1ccccc1)c1ccccc1)c1cnc2sccn2c1=O | 847 s |
| Cc1cc(N2CCCCC2)nc(N2CCN(C(=O)c3ccc(-c4ccccc4)cc3)CC2)n1 | 837 s |
| O=C(CCc1ccccc1)NC1CCN(c2cc(-c3ccccc3)[nH]n2)C1 (configuration not stated) | 643 s |
| CC(NC(=O)c1cn(C)c2ncccc12)c1ccccn1 (configuration not stated) | 552 s |
| O=C(Cc1nnc(-c2cnccn2)o1)NCc1ccccc1 | 635 s |
| CCOC(=O)c1noc2ncnc(N(Cc3ccccc3OC)C3CCN(C)CC3)c12 | 667 s |
| O=C(CC1=CCCCC1)N1CCC(C2CCNC2)CC1 (configuration not stated) | 602 s |
| NC(=O)c1oc2ccccc2c1NC(=O)c1cc(=O)c2ccccc2o1 | 805 s |
| O=S(=O)(c1ccccc1Br)N1CCc2nc(-c3ccc(F)cc3)ncc2C1 | 1130 s |

Next, values leading:

| RP-LC retention time | SMILES |
| --- | --- |
| 781 s | CC(C)c1ccc(CNC(=O)C2CCCN(c3cc(=O)n(C)c(=O)n3C)C2)cc1 (configuration not stated) |
| 558 s | CCN1C(=O)C(CC(=O)NCc2ccncc2)Sc2ncccc21 (configuration not stated) |
| 689 s | COCCN1C(=O)c2cccn2CC1CNS(=O)(=O)c1c(C)noc1C (configuration not stated) |
| 993 s | CC1CCN(c2ccc(-c3noc(CNC(=O)c4cccs4)n3)cc2)CC1 |
| 749 s | COc1ccc(CCC(=O)NCc2cccnc2OC)cc1 |
| 579 s | Cn1c(N2CCC(C(=O)N3CCN(Cc4ccc5c(c4)OCO5)CC3)CC2)cc(=O)n(C)c1=O |
| 1010 s | CC1CCCCN1C(=O)Cn1c(=O)n(C2CCCCC2)c(=O)c2ccccc21 (configuration not stated) |
| 1180 s | CC(C)c1ccc(-c2noc(N3CCC(C(=O)NC4CCCCC4)CC3)n2)cc1 |
| 962 s | CCOc1ccccc1CNC(=O)CN1C(=O)CSc2cccn2-c2ccccc21 |
| 861 s | Cc1nnsc1C(=O)NCc1c(F)cccc1Cl |
| 643 s | CCC(C(=O)N1CCn2c(C)nnc2C1)c1ccccc1 (configuration not stated) |
| 692 s | CCOc1ccccc1NC(=O)N1CCN(c2cc(C)nc(N3CCCC3)n2)CC1 |
| 867 s | Cc1ccc(C)c(CNC(=O)c2nc(C)oc2C)c1 |
| 960 s | Cc1ccc(CNC(=O)C2(C)CCCN(S(=O)(=O)c3ccccc3)C2)cc1 (configuration not stated) |
| 903 s | COc1ccc(OC)c(NS(=O)(=O)c2cc(-c3nc(C)cs3)n(CC(=O)N3CCCC3)c2)c1 |
| 818 s | CC(C)(C)NC(=O)N1CCC(CNS(=O)(=O)c2ccc(Br)s2)CC1 |
| 572 s | CCN(CC)C(=O)CN1CCN(c2cc(C(=O)O)c3cc(NC(=O)C(C)(C)C)ccc3n2)CC1 |
| 774 s | COc1ccc(NS(=O)(=O)c2cc3c(s2)CCN(C(=O)C2CC2)C3)cc1 |
| 598 s | CCCN1CCN(CCCNC(=O)C2CCCN(S(=O)(=O)c3ccc4c(ccn4C)c3)C2)CC1 (configuration not stated) |
| 783 s | CCOCCCNC(=O)C1CCN(S(C)(=O)=O)c2cc(Cl)ccc2O1 (configuration not stated) |
| 622 s | CN(C)c1ccc(CN2C(=O)CN(S(C)(=O)=O)CC2(C)C(=O)NCc2ccccc2)cc1 (configuration not stated) |
